Results published in patent US11427544B2, “Histone deacetylase 6 inhibitors and use thereof” (TAIPEI MEDICAL UNIVERSITY, priority 2016, dated 2022).
Counter-ions that a name gives are not always drawn.

What was measured:
HDAC1 = target: T1, HDAC1 (Homo sapiens, UniProt Q13547); test: Fluorogenic HDAC assay, HDAC1; assay type: biochemical; settings: recombinant HDAC1; read-out: Enzyme IC50 HDAC1
T1 construct: purchased BPS Bioscience Corp
Description: (§1) Of note, there are eighteen human HDACs. Eleven of them, designated as HDAC1-11, are zinc-dependent. Seven of them, designated as Sirt1-7, are NAD+-dependent.
(§2) Fluorogenic HDAC assay kits were used to assess the ability of HDAC inhibitors to inhibit deacetylation of lysine residues on a substrate by recombinant proteins HDAC1, 3, 4, 5, 6, 7, 8, 9 and Sirt1 according to the manufacturer's instructions (BPS Bioscience Corp., San Diego, Calif., USA).

HDAC6 = target: T2, HDAC6 (Homo sapiens, UniProt Q9UBN7); test: Fluorogenic HDAC assay, HDAC6; assay type: biochemical
T2 construct: purchased BPS Bioscience Corp
T2 sequence (Q9UBN7 1-1215): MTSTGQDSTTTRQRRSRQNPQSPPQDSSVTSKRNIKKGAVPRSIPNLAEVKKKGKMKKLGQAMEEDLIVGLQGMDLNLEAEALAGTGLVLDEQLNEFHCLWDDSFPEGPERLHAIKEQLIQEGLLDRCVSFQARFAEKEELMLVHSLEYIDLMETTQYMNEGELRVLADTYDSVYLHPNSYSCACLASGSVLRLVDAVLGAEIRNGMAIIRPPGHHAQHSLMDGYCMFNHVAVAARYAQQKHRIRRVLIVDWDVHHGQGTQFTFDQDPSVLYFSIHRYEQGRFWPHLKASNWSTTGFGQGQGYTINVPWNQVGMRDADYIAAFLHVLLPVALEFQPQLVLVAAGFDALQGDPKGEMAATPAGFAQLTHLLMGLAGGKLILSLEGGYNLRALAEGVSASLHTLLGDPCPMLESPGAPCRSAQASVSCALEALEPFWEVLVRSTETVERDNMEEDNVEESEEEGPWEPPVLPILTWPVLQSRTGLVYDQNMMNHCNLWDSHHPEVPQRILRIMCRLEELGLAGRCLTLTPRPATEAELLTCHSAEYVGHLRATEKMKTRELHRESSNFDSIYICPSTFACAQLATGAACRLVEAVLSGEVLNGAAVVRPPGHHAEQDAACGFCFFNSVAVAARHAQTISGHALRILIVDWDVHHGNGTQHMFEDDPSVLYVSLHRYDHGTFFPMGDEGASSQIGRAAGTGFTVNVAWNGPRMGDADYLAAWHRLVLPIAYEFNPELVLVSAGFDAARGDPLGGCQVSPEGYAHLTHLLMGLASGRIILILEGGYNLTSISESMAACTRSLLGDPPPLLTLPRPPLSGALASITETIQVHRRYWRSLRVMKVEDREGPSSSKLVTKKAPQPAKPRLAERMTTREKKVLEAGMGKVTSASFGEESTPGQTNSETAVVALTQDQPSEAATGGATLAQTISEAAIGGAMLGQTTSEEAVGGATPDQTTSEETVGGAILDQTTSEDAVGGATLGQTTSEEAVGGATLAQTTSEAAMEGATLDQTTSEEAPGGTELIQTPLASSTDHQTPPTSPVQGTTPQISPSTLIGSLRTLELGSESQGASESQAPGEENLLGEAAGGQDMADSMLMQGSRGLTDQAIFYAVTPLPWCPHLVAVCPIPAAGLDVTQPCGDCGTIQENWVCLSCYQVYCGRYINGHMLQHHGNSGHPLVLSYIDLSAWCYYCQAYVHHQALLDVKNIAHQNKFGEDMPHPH
Description: as §1, §2

[1] = test system: PC-3 prostate cancer cell line; test: Antiproliferative activity, PC-3; assay type: cell-based, human; settings: Homo sapiens
Protocol: (§3) A study was conducted to evaluate the inhibitory activity of compounds of Formula (I) in inhibiting HDAC6, antiproliferative activity of test compounds in suppressing cancer cell growth, and selectivity of inhibiting HDAC6 over other HDAC isoforms.
(§4) The study was performed according to the protocol reported in Hsieh et al., Cell Death and Disease, 2014, April; 5:e1166.
(§5) Shown in Table 2 below are antiproliferative activities (measured by their half maximal concentration for inhibiting cell growth, i.e., GI50) of the test compounds against various cancer cell lines.

[2] = test system: A549 lung cancer cell line; test: Antiproliferative activity, A549; assay type: cell-based, human; settings: Homo sapiens
Protocol: as §3, §4, §5

[3] = test system: APP in pCAX APP 695 plasmid-transfected Neuro 2a cells; test: Amyloid precursor protein (APP) levels, Western blot; assay type: cell-based; settings: pCAX APP 695 transfected neuro 2a cells; 0.1-10 μM, 24 hours
Protocol: (§6) A study was conducted to evaluate the effect of compounds of Formula (I) in amyloid precursor protein (APP) levels and Aβ42 production.
Neuro 2a cells (1×10^6) in 6-well plates were transfected with pCAX APP 695 plasmid for 24 hours, then incubated for another 24 hours with Compound 12, Compound 28, or tubasatin A (0.1-10 μM). Cells were then harvested and cell lysates were prepared for Western blot analysis of the APP proteins.

[4] = test system: Aβ42 production in pCAX APP 695 plasmid-transfected Neuro 2a and SH—SYSY cells; test: Aβ42 production in cell culture supernatants; assay type: cell-based; settings: pCAX APP 695 transfected Neuro 2a and SH—SYSY cells; 0.1-10 μM, 24 hours
Protocol: as §6
Moreover, neuro 2a or SH—SYSY cells (1×10^5) were transfected with pCAX APP 695 plasmid for 24 hours, followed by incubation with Compound 12 or Compound 28 (0.1-10 μM) for another 24 hours. Cell culture supernatants were assayed for Aβ42 production.

[5] = test system: HL-60 Acute promyelocytic leukemia; test: Tumor growth inhibition, HL-60 xenograft; assay type: in vivo, athymic nude mice; settings: 50 mg/kg, qd, intraperitoneal
Protocol: (§7) An in vivo study was conducted to evaluate the efficacy of compounds of Formula (I) in suppressing tumor growth in multiple human cancer types.
(§8) Eight-week-old athymic nude mice were group-housed under conditions of constant photoperiod (12 h light/12 h dark at 21-23° C. and 60-85% humidity) with ad libitum access to sterilized food and water. All animal experiments followed ethical standards, and protocols were reviewed and approved by the Animal Use and Management Committee of National Taiwan University. Each mouse was inoculated subcutaneously with 1×10^6˜1×10^7 human cancer cells in a total volume of 0.1 mL serum-free medium containing 50% Matrigel (BD Biosciences). As tumors became established (˜100 mm^3), mice were randomized to various groups to be treated with pre-determined materials (n=6-8/group): (i) control group: 0.5% DMSO/0.5% Cremophor/90% D5W and (ii) treatment groups: Compounds 12 and 28 at pre-determined doses daily. Mice received treatment by intraperitoneal injection for the duration of the study. Tumors were measured weekly using calipers. Tumor size, in mm^3, was calculated according to the formula: Tumor volume=(w^2×l)/2, where w and 1 respectively represent the width and length (both in mm) of the tumor.

[6] = test system: BJAB Burkitt lymphoma-derived B-cell; test: Tumor growth inhibition, BJAB xenograft; assay type: in vivo, athymic nude mice; settings: 50 mg/kg, qd, intraperitoneal
Protocol: as §7, §8

[7] = Safety in ICR mice, 7-day intraperitoneal dosing; assay type: in vivo; settings: 50, 100, and 200 mg/kg intraperitoneally once a day for 7 days, monitored another 7 days
Protocol: In addition, both Compounds 12 and 28 were studied to evaluate their safety in animals.
[…]. The animals were dosed intraperitoneally once a day for 7 days and then monitored for another 7 days. The animals were weighed daily for 1 week and then twice weekly.

[8] = test system: scopolamine-induced memory deficit; test: Water maze test, scopolamine-treated rats; assay type: in vivo; settings: gavage twice daily for seven days; scopolamine 1.5 mg/kg i.p.
Protocol: An in vivo study was conducted to evaluate the efficacy of compounds of Formula (I) in improving memory deficits associated with Alzheimer's disease.
(§9) Compound 12, Compound 28, suberanilohydroxamic acid (50 mg/kg) or vehicle was given to rats by gavage twice daily for seven days prior to behavioral experiments. On the day conducting a behavior assessment, rats in all groups except the control group were administered scopolamine (1.5 mg/kg) by intraperitoneal injection for 30 minutes before the assessment, then a water maze test or an elevated plus maze test was performed.

[9] = test system: scopolamine-induced memory deficit; test: Elevated plus maze test, scopolamine-treated rats; assay type: in vivo; settings: gavage twice daily for seven days; scopolamine 1.5 mg/kg i.p.
Protocol: as §9, with “An in vivo study was conducted to evaluate the efficacy of compounds of Formula (I) in improving memory deficits associated with Alzheimer's disease. Compound 12,” for “Compound 12,”, “was performed. […] The significant reduction in transfer latency time indicated improvement in memory.” for “was performed.”

[10] = test system: MDA-MB-231 Breast cancer cell line; test: Antiproliferative activity, MDA-MB-231; assay type: cell-based, human; settings: MDA-MB-231; mesylate
Protocol: as §3, §4, §5

[11] = test system: T98 Glioblastoma cell line; test: Antiproliferative activity, T98; assay type: cell-based, human; settings: T98; mesylate
Protocol: as §3, §4, §5

T1 sequence (Q13547 whole entry): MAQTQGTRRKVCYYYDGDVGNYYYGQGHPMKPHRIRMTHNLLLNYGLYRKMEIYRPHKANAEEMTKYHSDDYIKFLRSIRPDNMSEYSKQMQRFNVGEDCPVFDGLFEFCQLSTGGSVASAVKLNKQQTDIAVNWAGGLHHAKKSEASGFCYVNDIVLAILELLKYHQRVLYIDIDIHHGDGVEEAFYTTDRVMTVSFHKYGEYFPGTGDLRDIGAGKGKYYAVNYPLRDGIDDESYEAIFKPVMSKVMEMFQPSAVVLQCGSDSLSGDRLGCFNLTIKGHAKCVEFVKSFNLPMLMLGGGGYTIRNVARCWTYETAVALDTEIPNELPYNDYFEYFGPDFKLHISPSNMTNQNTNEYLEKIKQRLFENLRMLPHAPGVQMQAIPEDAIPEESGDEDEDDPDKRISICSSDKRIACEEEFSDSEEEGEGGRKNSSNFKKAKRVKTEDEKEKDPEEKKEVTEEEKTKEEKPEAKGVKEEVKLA

SMILES | IC50 (HDAC1) [µM] | IC50 (HDAC6) [µM] | GI50 [1] [µM] | GI50 [2] [µM] | APP expression [3] | Aβ42 production [4] | % TGI [5] [%] | % TGI [6] [%] | tolerability [7] | time spent in the correct quadrant (water maze) [8] | transfer latency time (elevated plus maze) [9] | GI50 [10] [µM] | GI50 [11] [µM]
O=C(NO)c1ccc(CNc2cccc3ncccc23)cc1 [Compound 12, N-hydroxy-4-((quinolin-5-ylamino)methyl)benzamide] | 2.65 | 0.00273 | 3.28 ± 0.11 | 5.53 ± 0.24 | markedly reduced the APP expression | decreased Aβ42 production | 72.2 | 64.5 | well tolerated | markedly reverse this effect | significantly rescued scopolamine-mediated increase of transfer latency time |  | 
O=C(NO)c1ccc(CNc2cccc3cccnc23)cc1 [Compound 28-mesylate, N-Hydroxy-4-(quinolin-8-ylaminomethyl)-benzamide mesylate] |  |  |  |  |  |  |  |  |  |  |  | 1.36 ± 0.25 | 10.8 ± 0.83
